Data on 10 molecules can be found in ChEMBL document CHEMBL5584252, “Stereochemical inversion at a 1,4-cyclohexyl PROTAC linker fine-tunes conformation and binding affinity” (Bioorg Med Chem Lett, 2024).

Experiment [1] has as its target T1, Von Hippel-Lindau disease tumor suppressor/Elongin B/Elongin C (Homo sapiens, UniProt P40337). Briefly: Binding affinity to VHL/Elongin C/Elogin B (unknown origin) using FAM-DEALA-Hyp-YIPMDDDFQLRSF as substrate assessed as dissociation constant by fluorescence polarization assay. In kind it is protein-complex assay. A general note: Polarisation of emitted light reports the rotation of a fluorescent probe.

Experiment [2] addresses T2, von Hippel-Lindau disease tumor suppressor/Leucine-rich repeat serine/threonine-protein kinase 2 (Mus musculus) (UniProt Q5S006+P40338). Briefly: PROTAC activity at VHL/wildtype LRRK2 in MEF cells assessed as induction of LRRK2 degradation by measuring half-life at 300 nM incubated for 48 hrs by Western blot analysis. In kind it is cell-based. (Immunoblotting shows a protein as a band on a membrane.)

The target of experiment [3] is T2, von Hippel-Lindau disease tumor suppressor/Leucine-rich repeat serine/threonine-protein kinase 2 (Mus musculus). Put plainly: PROTAC activity at VHL/wildtype LRRK2 in MEF cells assessed as induction of LRRK2 degradation by measuring maximal efficacy at 300 nM incubated for 48 hrs by Western blot analysis relative to control. In kind it is cell-based.
Experiment [4] concerns HEK293. Briefly: Binding affinity to C-terminal NanoLuc fused human LRRK2/VHL-elongin-B-elongin C (unknown origin) complex expressed in HEK293 cells assessed as ternary complex formation by measuring cooperativity factor by NanoBRET based assay. In kind it is cell-based. (Bioluminescence resonance energy transfer reports proximity on the nanometre scale.)
Experiment [5] concerns the target T1, Von Hippel-Lindau disease tumor suppressor/Elongin B/Elongin C. Put plainly: Displacement of JC-9 probe from recombinant VHL/Elongin C/Elogin B (unknown origin) using FAM-DEALA-Hyp-YIPMDDDFQLRSF as substrate assessed as dissociation constant by competitive fluorescence polarization assay. In kind it is protein-complex assay.
Experiment [6] addresses Protein cereblon/Leucine-rich repeat serine/threonine-protein kinase 2 (Homo sapiens, UniProt Q5S007+Q96SW2). Briefly: PROTAC activity at CRBN/LRRK2 (unknown origin). In kind it is protein assay.
In experiment [7] the target is T1, Von Hippel-Lindau disease tumor suppressor/Elongin B/Elongin C. Briefly: Binding affinity to VHL/Elongin C/Elogin B (unknown origin) assessed as dissociation constant at 20 uM by ITC analysis. In kind it is protein-complex assay.
Experiment [8] deals with T3, Von Hippel-Lindau disease tumor suppressor/Elongin B/Elongin C (Homo sapiens) (UniProt P40337+Q15370+Q15369). Put plainly: Binding affinity to VHL/Elongin C/Elogin B (unknown origin) assessed as change in gibbs free energy at 20 uM by ITC analysis. In kind it is protein-complex assay.
Experiment [9] has as its target T3, Von Hippel-Lindau disease tumor suppressor/Elongin B/Elongin C (Homo sapiens). Put plainly: Binding affinity to VHL/Elongin C/Elogin B (unknown origin) assessed as change in enthalpy at 20 uM by ITC analysis. In kind it is protein-complex assay.
The target is the same in experiment [10]. Put plainly: Binding affinity to VHL/Elongin C/Elogin B (unknown origin) assessed as change in entropy at 20 uM by ITC analysis. In kind it is protein-complex assay.

T2 sequence (P40338 whole entry, looked up): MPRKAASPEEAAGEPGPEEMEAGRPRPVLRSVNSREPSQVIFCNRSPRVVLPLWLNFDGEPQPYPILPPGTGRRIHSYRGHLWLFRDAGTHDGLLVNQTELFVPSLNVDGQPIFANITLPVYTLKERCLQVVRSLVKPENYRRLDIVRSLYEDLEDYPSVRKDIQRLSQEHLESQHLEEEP
T2 sequence (Q5S006 whole entry, looked up): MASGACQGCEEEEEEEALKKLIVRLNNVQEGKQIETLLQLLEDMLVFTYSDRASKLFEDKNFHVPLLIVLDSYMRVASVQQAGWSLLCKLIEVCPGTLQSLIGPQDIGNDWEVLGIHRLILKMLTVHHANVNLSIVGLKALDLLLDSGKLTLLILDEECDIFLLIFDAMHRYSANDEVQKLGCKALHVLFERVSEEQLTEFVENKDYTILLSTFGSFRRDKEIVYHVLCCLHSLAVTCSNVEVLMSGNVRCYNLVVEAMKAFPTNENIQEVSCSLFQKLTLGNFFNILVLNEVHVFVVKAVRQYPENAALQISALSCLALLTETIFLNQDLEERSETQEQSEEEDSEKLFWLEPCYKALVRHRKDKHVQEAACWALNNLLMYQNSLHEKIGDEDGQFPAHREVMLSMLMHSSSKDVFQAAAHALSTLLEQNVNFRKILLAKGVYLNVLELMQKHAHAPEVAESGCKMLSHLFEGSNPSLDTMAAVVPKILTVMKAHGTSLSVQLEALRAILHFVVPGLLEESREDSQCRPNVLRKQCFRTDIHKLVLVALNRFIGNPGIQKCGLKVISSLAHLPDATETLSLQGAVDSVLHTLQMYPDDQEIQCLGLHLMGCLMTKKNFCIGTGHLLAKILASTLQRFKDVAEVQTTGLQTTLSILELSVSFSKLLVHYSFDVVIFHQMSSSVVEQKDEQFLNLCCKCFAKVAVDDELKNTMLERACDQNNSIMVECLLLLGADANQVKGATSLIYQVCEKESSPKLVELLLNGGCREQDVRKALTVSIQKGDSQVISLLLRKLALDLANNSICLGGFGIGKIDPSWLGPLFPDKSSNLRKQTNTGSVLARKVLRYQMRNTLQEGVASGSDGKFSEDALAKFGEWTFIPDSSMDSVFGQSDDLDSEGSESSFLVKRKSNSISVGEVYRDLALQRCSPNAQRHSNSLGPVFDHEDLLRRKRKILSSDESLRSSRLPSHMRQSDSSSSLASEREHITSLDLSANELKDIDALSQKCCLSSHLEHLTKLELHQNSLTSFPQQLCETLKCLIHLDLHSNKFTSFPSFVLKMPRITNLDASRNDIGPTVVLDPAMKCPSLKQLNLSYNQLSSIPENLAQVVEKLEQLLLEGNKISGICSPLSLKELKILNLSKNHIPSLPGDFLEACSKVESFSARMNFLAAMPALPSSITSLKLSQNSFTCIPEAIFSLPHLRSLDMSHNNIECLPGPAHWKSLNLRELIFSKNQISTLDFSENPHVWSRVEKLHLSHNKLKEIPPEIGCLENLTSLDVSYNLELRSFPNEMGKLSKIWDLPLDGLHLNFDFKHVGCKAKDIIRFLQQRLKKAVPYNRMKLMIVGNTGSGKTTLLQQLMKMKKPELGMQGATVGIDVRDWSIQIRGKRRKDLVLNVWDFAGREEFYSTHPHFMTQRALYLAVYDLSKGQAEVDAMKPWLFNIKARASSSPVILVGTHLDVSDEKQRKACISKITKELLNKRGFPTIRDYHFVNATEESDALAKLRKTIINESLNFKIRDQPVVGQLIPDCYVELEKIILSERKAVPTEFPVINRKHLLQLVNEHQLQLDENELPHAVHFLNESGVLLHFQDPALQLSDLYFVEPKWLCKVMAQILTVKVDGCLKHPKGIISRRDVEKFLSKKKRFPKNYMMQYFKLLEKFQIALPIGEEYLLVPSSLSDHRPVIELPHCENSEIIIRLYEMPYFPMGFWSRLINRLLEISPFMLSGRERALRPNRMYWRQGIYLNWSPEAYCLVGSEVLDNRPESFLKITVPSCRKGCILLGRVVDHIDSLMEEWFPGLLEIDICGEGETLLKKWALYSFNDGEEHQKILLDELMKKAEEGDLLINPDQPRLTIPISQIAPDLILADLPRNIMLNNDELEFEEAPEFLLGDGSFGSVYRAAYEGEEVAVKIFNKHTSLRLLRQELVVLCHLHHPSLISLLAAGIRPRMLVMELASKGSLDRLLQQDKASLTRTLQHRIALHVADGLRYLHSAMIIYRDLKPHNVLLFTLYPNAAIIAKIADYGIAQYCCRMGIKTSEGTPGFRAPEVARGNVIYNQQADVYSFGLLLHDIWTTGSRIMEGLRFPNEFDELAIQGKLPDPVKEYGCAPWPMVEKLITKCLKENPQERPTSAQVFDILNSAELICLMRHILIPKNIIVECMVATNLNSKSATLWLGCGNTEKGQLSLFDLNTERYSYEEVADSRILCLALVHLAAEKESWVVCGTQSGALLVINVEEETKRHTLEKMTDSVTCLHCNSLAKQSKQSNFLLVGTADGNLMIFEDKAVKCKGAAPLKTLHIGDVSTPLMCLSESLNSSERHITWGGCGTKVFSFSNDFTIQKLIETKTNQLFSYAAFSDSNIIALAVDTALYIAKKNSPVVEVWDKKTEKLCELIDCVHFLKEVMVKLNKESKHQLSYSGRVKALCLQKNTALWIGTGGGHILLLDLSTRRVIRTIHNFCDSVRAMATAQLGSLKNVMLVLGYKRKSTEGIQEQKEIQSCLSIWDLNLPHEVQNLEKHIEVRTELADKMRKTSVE
T3 sequence (P40337 whole entry, looked up): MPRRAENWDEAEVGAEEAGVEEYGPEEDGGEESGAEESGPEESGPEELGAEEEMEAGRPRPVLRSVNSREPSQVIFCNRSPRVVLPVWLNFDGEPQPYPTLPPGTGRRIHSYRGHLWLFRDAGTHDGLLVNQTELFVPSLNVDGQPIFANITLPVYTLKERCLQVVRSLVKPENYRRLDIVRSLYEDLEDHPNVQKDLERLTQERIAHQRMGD
T3 sequence (Q15369 whole entry, looked up): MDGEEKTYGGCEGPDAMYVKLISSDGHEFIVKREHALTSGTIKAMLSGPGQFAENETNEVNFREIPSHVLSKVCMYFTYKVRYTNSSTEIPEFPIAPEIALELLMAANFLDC
T3 sequence (Q15370 whole entry, looked up): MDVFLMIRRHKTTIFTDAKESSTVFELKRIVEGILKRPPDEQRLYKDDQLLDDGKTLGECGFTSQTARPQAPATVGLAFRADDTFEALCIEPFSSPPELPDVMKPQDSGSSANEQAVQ
T1 sequence (P40337 whole entry, looked up): as the sequence (P40337 whole entry, looked up) above

As for `CNc1nc(Nc2ccc(C(=O)N3CCN(C[C@H]4CC[C@@H](CSC(C)(C)[C@H](NC(=O)C5(F)CC5)C(=O)N5C[C@H](O)C[C@H]5C(=O)NCc5ccc(-c6scnc6C)cc5)CC4)CC3)cc2OC)ncc1Cl`, the Kd amounted to 160 nM in experiment [1] and 326 nM in experiment [5]. Further, in experiment [2], the T1/2 came out at 2.7 h. The maximum response (Emax) in experiment [3] was determined as 59%. For the same molecule, the Activity in [4] is 1.4.
For `COc1ccc(C(=O)N2CCN(C[C@H]3CC[C@@H](CSC(C)(C)[C@H](NC(=O)C4(F)CC4)C(=O)N4C[C@H](O)C[C@H]4C(=O)NCc4ccc(-c5scnc5C)cc4)CC3)CC2)cc1`, the Kd in [5] was found to be 260 nM.
On the same count and under the same terms, the figure for `Cc1ncsc1-c1ccc(CNC(=O)[C@@H]2C[C@@H](O)CN2C(=O)[C@@H](NC(=O)C2(F)CC2)C(C)(C)SC[C@H]2CC[C@@H](CN(C)C)CC2)cc1` is 313 nM.
`CC1(Oc2ccc3[nH]nc(-c4cc(N5CCN(C[C@H]6CC[C@@H](CN7CCN(c8ccc9c(c8F)CN(C8CCC(=O)NC8=O)C9=O)CC7)CC6)CC5)ncn4)c3c2)CC1` (stereo partly specified) yielded a DC50 in experiment [6] of under 10 nM.
Consider `Cc1ncsc1-c1ccc(CNC(=O)[C@@H]2C[C@@H](O)CN2C(=O)[C@@H](NC(=O)C2(F)CC2)C(C)(C)SC[C@H]2CC[C@@H](CN3CCOCC3)CC2)cc1`, for which the Kd in experiment [5] was 354 nM; in experiment [7], 165 nM. In addition, the deltaG in [8] was -9.25 kcal/mol. Also, the deltaH in experiment [9] was -7.96 kcal/mol. Moreover, in [10], the TdeltaS is -1.31 kcal/mol.
Consider `CSC(C)(C)[C@H](NC(=O)C1(F)CC1)C(=O)N1C[C@H](O)C[C@H]1C(=O)NCc1ccc(-c2scnc2C)cc1`, for which the Kd in experiment [5] stood at 406 nM.
Still for that read-out and setting: the figure for `Cc1ncsc1-c1ccc(CNC(=O)[C@@H]2C[C@@H](O)CN2C(=O)[C@@H](NC(=O)C2(F)CC2)C(C)(C)SC[C@H]2CC[C@H](CN(C)C)CC2)cc1` is 514 nM.
On to `Cc1ncsc1-c1ccc(CNC(=O)[C@@H]2C[C@@H](O)CN2C(=O)[C@@H](NC(=O)C2(F)CC2)C(C)(C)SC[C@H]2CC[C@H](CN3CCOCC3)CC2)cc1`, for which the values for the Kd in experiment [5] and in [7] were 540 nM and 396 nM, respectively. Also, in experiment [8], the deltaG was -8.75 kcal/mol. Besides, in experiment [9], the deltaH is -6.98 kcal/mol. In addition, the TdeltaS in [10] is -1.77 kcal/mol.
Consider `COc1ccc(C(=O)N2CCN(C[C@H]3CC[C@H](CSC(C)(C)[C@H](NC(=O)C4(F)CC4)C(=O)N4C[C@H](O)C[C@H]4C(=O)NCc4ccc(-c5scnc5C)cc4)CC3)CC2)cc1`, for which, in experiment [5], the Kd turned out to be 585 nM.
With `CNc1nc(Nc2ccc(C(=O)N3CCN(C[C@H]4CC[C@H](CSC(C)(C)[C@H](NC(=O)C5(F)CC5)C(=O)N5C[C@H](O)C[C@H]5C(=O)NCc5ccc(-c6scnc6C)cc5)CC4)CC3)cc2OC)ncc1Cl`, the dissociation constant (Kd) was over 2330 nM in experiment [1] and over 820 nM in experiment [5]. In addition, the T1/2 in [2] stood at 1.2 h. The maximal effect (Emax) in experiment [3] was determined as 82%. Besides, the Activity in experiment [4] came out at 5.7.

One may read the Kd as a measure of binding affinity in units of concentration. A word on the Emax: it is the greatest response seen or fitted, relative to the assay's reference.
